Key:
Type in all cases: cell-based, human
[1] = system: A549 cells; test: K^+ flux, FluxOR potassium ion channel assay (Tl^+ influx), fluorometry; conditions: for K^+ flux, + oleate: peptide mixed with sodium oleate; for K^+ flux, + oleate / K^+ flux, - oleate: FluxOR fluorescence; for K^+ flux, - oleate: peptide without sodium oleate
Method: (§1) To quantify the ion fluxes, fluorometry was measured in a plate reader (TECAN infinite F200, Tecan Group, Switzerland). For calcium fluxes measurement, the Fluo-4 NW calcium assay kit (Invitrogen) was used. For K^+ fluxes, the FluxOR™ potassium ion channel assay (Invitrogen) was used according to the manufacturer's instructions but component E was excluded. Briefly, cells were incubated with FluxOR™, which is a Tl^+ indicator. An increase in fluorescence signal corresponds to an influx of Tl^+, indicating opening of potassium channels, which was measured at 535 nm after excitation at 485 nm in the TECAN infinite plate reader. Given the driving force for K^+ flux across the plasma membrane this corresponds to K^+ efflux. Calcium and potassium fluxes was measured in 20 000 A549 cells plated in a 96-well plate. Sodium was measured in 100 000 Jurkat cells using the CoroNa Green Sodium Indicator (Invitrogen).

[2] = system: Jurkat cells; test: Na^+ flux, CoroNa Green Sodium Indicator, fluorometry; conditions: for Na^+ flux, + oleate: peptide mixed with sodium oleate; for Na^+ flux, + oleate / Na^+ flux, - oleate: CoroNa Green fluorescence; for Na^+ flux, - oleate: peptide without sodium oleate
Method: as §1

[3] = system: A549 cells; test: Ca^2+ flux, Fluo-4 NW calcium assay, fluorometry; conditions: for Ca^2+ flux, + oleate: peptide mixed with sodium oleate; for Ca^2+ flux, + oleate / Ca^2+ flux, - oleate: Fluo-4 fluorescence; for Ca^2+ flux, - oleate: peptide without sodium oleate
Method: as §1

[4] = system: A549 lung carcinoma cells; test: Cell morphology by phase holographic imaging and transmission DIC; conditions: A549; 1 h
Method: For cellular uptake assays, A549 lung carcinoma cells were grown overnight on 8-well chamber slides (Nalge Nunc, Rochester, NY). Cells were incubated 1 hour with 35 μM biotinylated peptide with or without 175 μM sodium oleate (Sigma) in serum free RPMI media, followed by fixation (4% paraformaldehyde) and permeabilization (0.25% Triton X-100, 5% FCS in phosphate-buffered saline). Peptides were visualized by incubation with streptavidin-Alexa568 (Molecular Probes) and Wheat Germ Agglutinin (WGA) (Molecular Probes) was used to visualize plasma and nuclear membranes. Images were captured on a LSM510 META confocal microscope (Carl Zeiss, Jena, Germany) with pinhole settings corresponding to one airy unit. Quantification of fluorescence intensities was performed with the ImageJ software. The HoloMonitorTM M3 digital holographic microscope (Phase Holographic Imaging AB, Lund, Sweden) records 3D information of cells using interfering wave fronts induced by the exposure to a 0.8 mW HeNe laser (633 nm), resembling a Mach-Zender interferometer where the cells, placed in one of the interfering wave fronts, induce a phase difference between the two beams [26]-[28]. The interference pattern (hologram) is recorded on a digital sensor and is used to reconstruct the amplitude and phase of the object as described, [30]. […]

[5] = system: lung carcinoma or leukemia cells; test: Tumor cell death (ATP level, PrestoBlue), cell line not given; conditions: sodium oleate alone; 3 hours
Method: A549 human lung carcinoma cell line and the Jurkat human acute T-cell leukemia cell line (obtained from ATCC, Manassas, VA, USA) were cultured in RPMI-1640 with non-essential amino acids (1∶100), 1 mM sodium pyruvate (all from PAA, Pasching, Austria), […] Gentamicin (Gibco, Paisley, UK) and 5% fetal calf serum (FCS) at 37°C, 5% CO2. Cells (5*10^5 cells/ml for A549 cells, 1*10^6 cells/ml for Jurkat cells) in suspension were incubated with either […] or peptide-oleate mixtures in serum-free RPMI-1640 at 37°C, 5% CO2. 5% FCS was added after 1 hour. Cell death was quantified by ATP level measurement (ATPlite Kit, PerkinElmer, Waltham, MA, Infinite F200, Tecan Group Ltd., Männedorf, Switzerland) and by using PrestoBlueTM Cell Viability Reagent (Invitrogen, Carlsbad, CA).

Molecule	K^+ flux, + oleate [1]	K^+ flux, - oleate [1]	Na^+ flux, + oleate [2]	Na^+ flux, - oleate [2]	Ca^2+ flux, + oleate [3]	Ca^2+ flux, - oleate [3]	K^+ flux, substance alone ([1]; HAMLET or sodium oleate alone, FluxOR, mean of at least two experiments)	Cell morphology by transmission light DIC, oleate-free peptide or oleate alone [4]	Tumor cell killing in the absence of peptide [5]	Na^+ flux, substance alone ([2]; HAMLET or sodium oleate alone, CoroNa Green, mean of at least two experiments)	Ca^2+ flux, substance alone ([3]; HAMLET or sodium oleate alone, Fluo-4, mean of at least two experiments)
KQFTKAELSQLLKDI [Peptide 1, 15-amino-acid peptide of α-lactalbumin library, numbered from the N-terminal]	triggered K^+ fluxes and Yes	triggered K^+ fluxes and Yes	No	No	No	No					
ATEKLEQWLAEKL [Peptide 12, C-terminal peptide of α-lactalbumin library]	No	No	No	No	No	No					
LDDDITDDIMAAKKI [Peptide 9, 15-amino-acid peptide of α-lactalbumin library]	No	No	No	No	No	No					
NIADISADKFLDDDI [Peptide 8, 15-amino-acid peptide of α-lactalbumin library]	No	No	No	No	No	No					
FHTSGYDTQAIVENN [Peptide 4, 15-amino-acid peptide of α-lactalbumin library]	No	No	No	No	No	No					
LLKDIDGYGGIALPE [Peptide 2, 15-amino-acid peptide of α-lactalbumin library]	No	No	No	No	No	No					
IVENNESTEYGLFQI [Peptide 5, 15-amino-acid peptide of α-lactalbumin library]	No	No	No	No	No	No					
IDYWLAHKALATEKL [Peptide 11, 15-amino-acid peptide of α-lactalbumin library]	triggered K^+ fluxes and Yes	triggered K^+ fluxes and Yes	No	No	increased Ca^2+ fluxes and Yes	increased Ca^2+ fluxes and Yes					
IALPELIATMFHTSG [Peptide 3, 15-amino-acid peptide of α-lactalbumin library]	No	No	No	No	No	No					
AAKKILDIKGIDYWL [Peptide 10, 15-amino-acid peptide of α-lactalbumin library]	No	No	Weak Na^+ fluxes		weaker Ca^2+ flux	weaker Ca^2+ flux					
CCCCCCCC/C=C\CCCCCCCC(=O)O [Sodium oleate, sodium oleate, reference compound]							significant K^+ fluxes	remain as flat and extended	did not kill the tumor cells	not observed	not observed
AKSSQVPQSRNIADI [Peptide 7, 15-amino-acid peptide of α-lactalbumin library]	No	No	No	No	No	No					

Reference: PMC3531425, “Low Resolution Solution Structure of HAMLET and the Importance of Its Alpha-Domains in Tumoricidal Activity” (PLoS ONE, 2012)
